One test concerns Trypanosoma cruzi. Nature of the test: Antitrypanosomal activity against Trypanosoma cruzi Tulahuen amastigotes expressing beta-galactosidase gene infected in mouse NIH/3T3 cells after 4 days. It is filed as functional, cell-based. Conditions: NIH3T3, 96 h.
The nature of test [1]: Inhibition of Trypanosoma cruzi strain CL Brener N-terminal His6-tagged glucokinase expressed in Escherichia coli using D-glucose as substrate in presence of ATP by colorimetric assay.
The nature of test [2]: Inhibition of Trypanosoma cruzi strain CL Brener N-terminal His6-tagged glucokinase expressed in Escherichia coli using D-glucose as substrate in presence of ATP by Lineweaver-Burk Plot analysis.
Test [3] in a line: Inhibition of Trypanosoma cruzi hexokinase.
A short description of test [4]: Inhibition of Leishmania major trypanothione reductase.
Test [5] can be described thus: Inhibition of Trypanosoma cruzi glucose-6-phosphate dehydrogenase.
Test [6] is described as follows: Inhibition of Trypanosoma cruzi N-terminal His-tagged full-length glucose-6-phosphate dehydrogenase expressed in Escherichia coli BL21(DE3) using glucose-6-phosphate as substrate in presence of NADP+ by spectrophotometric method.
Test [7] is described as follows: Inhibition of Leishmania amazonensis squalene synthase.
Test [8] in a line: Inhibition of Trypanosoma cruzi SUMO-tagged glucose-6-phosphate dehydrogenase expressed in Escherichia coli BL21(DE3) using glucose-6-phosphate as substrate by diaphorase enzyme coupled fluorescence assay.
In test [9] the test system is Leishmania. The test is described as follows: Antileishmanial activity against Leishmania in visceral leishmaniasis patient assessed as cure incidents at 10 to 15 mg/kg, iv administered as single dose as lipid formulations relative to control. It is filed as functional.
Test [10] in a line: Mixed-type inhibition of Trypanosoma cruzi epimastigotes hexokinase using D-glucose as substrate in presence of ATP by Lineweaver-Burk Plot analysis.
Test [11] has as its system Leishmania. The test is described as follows: Antileishmanial activity against Leishmania in mucocutaneous leishmaniasis patient assessed as cure incidents at 4 mg/kg relative to control. In kind it is functional.

Structures are written as SMILES.

Regarding `O=C(N[C@@H]1[C@@H](O)[C@H](O)[C@@H](CO)O[C@@H]1O)c1ccccc1`, the 50% inhibitory concentration (IC50) is 48.7 µM in the test on Trypanosoma cruzi and 16.1 µM in test [1]. For the same compound, the Ki in [2] is 32 µM.

With `CCn1c2ccccc2c2cc(NC(P(=O)(O)O)P(=O)(O)O)ccc21`, in test [3], the IC50 is 6.4 µM and the affinity, expressed as Ki, was 2.8 µM.

The compound `O=C(CCl)N1c2ccccc2Sc2ccccc21` displayed an IC50 in test [4] of 9.3 µM.

In test [5], `CCCCCCCn1cnc2sc(C(N)=O)c(C)c2c1=O` had an IC50 of 4.9 µM.

On to `C[C@]12CC[C@H](O)C[C@@H]1CC[C@@H]1[C@@H]2CC[C@]2(C)C(=O)CC[C@@H]12` [EPIANDROSTERONE], for which, in [6], the half-inhibitory concentration (IC50) worked out at 3 µM and the Ki is 3.2 µM.

On to `COCCCOc1ccc(C#C[C@@]2(O)CN3CCC2CC3)c(Cc2ccccc2)n1`, for which, in test [7], 0.9 µM corresponded to half-maximal inhibition (IC50) and the Ki was determined as 0.0012 µM.

Consider `O=C(N[C@@H]1[C@@H](O)[C@H](O)[C@@H](CO)O[C@@H]1O)OCc1ccccc1`, for which the IC50 came to 16.1 µM in the test with Trypanosoma cruzi and 48.7 µM in test [1]. In [2], the Ki came out at 0.71 µM.

In [7], `CO[C@H]1CN(c2ccc(C#C[C@@]3(O)CN4CCC3CC4)c(Cc3ccccc3)n2)C[C@H]1O` gave an IC50 of 6.7 µM and a Ki of 0.0052 µM.

As to `C[C@]12CC[C@H](O)C[C@@H]1CC[C@@H]1[C@@H]2CC[C@]2(C)C(=O)[C@H](Br)C[C@@H]12` [16.ALPHA.-BROMOEPIANDROSTERONE], in [8], the IC50 amounted to 0.086 µM.

As for `O=C(CCl)N1c2ccccc2Oc2ccc(Cl)cc21`, the IC50 in test [4] was 7.6 µM.

With `Cc1ccc(Nc2ncc3c(n2)CCCC3=O)cc1`, inhibition in test [5] was half-maximal at 0.48 µM (IC50).

On to `C[C@@H]1[C@H](O)[C@@H](C)/C=C/C=C/C=C/C=C/C=C/C=C/C=C/[C@H](O[C@@H]2O[C@H](C)[C@@H](O)[C@H](N)[C@@H]2O)C[C@@H]2O[C@](O)(C[C@@H](O)C[C@@H](O)[C@H](O)CC[C@@H](O)C[C@@H](O)CC(=O)O[C@H]1C)C[C@H](O)[C@H]2C(=O)O` [AMPHOTERICIN B], for which the Activity in the test on Leishmania [9] worked out at 93.3%.

In turn, `O=C(CCl)N1c2ccccc2COc2ccc(Cl)cc21` displayed an IC50 in [4] of 7.2 µM.

Turning to `C[C@]12CC[C@H](O)CC1=CC[C@@H]1[C@@H]2CC[C@]2(C)C(=O)[C@H](Br)C[C@@H]12`, the half-maximal inhibitory concentration (IC50) in [8] stood at 0.216 µM.

On to `O=P(O)(O)C(Nc1cccc(Br)c1)P(=O)(O)O`, for which, in [10], the Ki amounted to 1.2 µM.

On to `N=C(N)c1ccc(OCCCCCOc2ccc(C(=N)N)cc2)cc1` [PENTAMIDINE], for which the Activity with Leishmania [11] is 90 - 95%.

As to `O=P(O)(O)C(O)(Cc1ccncc1)P(=O)(O)O`, the Ki in [10] was 4.3 µM.

One may read the IC50 as the concentration at which inhibition is half-maximal. For orientation: Ki means a dissociation constant, usually derived from enzyme kinetics or from competition with a known ligand.
